From patent US11110102B2, “Antifungal agents used in combination” (Scynexis, Inc., priority 2017, dated 2021) come the findings set out here.

Values joined by “and” are separate entries in the source; they are usually repeats but may differ in a detail not shown here. Equal values may be shown once. Read-outs that look alike come from different tables or passages of the source. A value given as a limit tells only on which side of the number the result lay.

For one series, the system named is A. fumigatus MRL #20438. Briefly: Checkerboard combination MIC testing. The series is classed as cell-based, Aspergillus fumigatus. Particulars: A. fumigatus MRL 20438 (wild-type), read at 48 hours, duplicate; for MIC per drug in Combination: SCY-078 combined with isavuconazole; for MIC: Aspergillus fumigatus, SCY078, 48 h. The text has this:
(§1) To determine the type of interaction between a representative compound of the enfumafungin derivatives (SCY-078) with several antifungal agents against Aspergillus fumigatus, the most frequent mold causing invasive disease in humans, the checkerboard method was used. The citrate salt of the compound was used in the studies.
(§2) The checkerboard method involves the determination of percent growth inhibition of fungal cells in the presence of different combinations of drugs. Percent growth inhibition is calculated relative to growth in control wells which contain only cells and no drug. The assay was performed in 96-well microplates in which each row and each column contained twofold serial dilutions of drug A and drug B at concentrations ranging from 0 to slightly higher than their minimum inhibitory concentration (MIC). […] Then the inoculum was added to each well and the growth was evaluated after 48 hrs incubation to determine the first well in which growth was inhibited. The checkerboard-based determination of MICs of antifungal agents in combination was followed by further analysis employing the nonparametric fractional inhibitory concentration index (FICI), which is defined by the following equation:
(§3) [formula] where MIC-A and MIC-B are the MICs of drugs A and B, respectively.
(§4) Each drug was initially diluted in either sterile, distilled water or in DMSO, depending on whether the drug was water-soluble or water-insoluble, respectively.
(§5) Stock solution of SCY-078 was prepared in DMSO at 200 times the concentration desired for use in the drug plates. Serial dilutions of stock solution were conducted in DMSO to obtain eleven 2-fold dilutions of the drug. The SCY-078 solution was then diluted to 4 times the desired concentration in RPMI-1640 medium so that the DMSO would not limit growth of the organism and so that the quantity of DMSO was the same for every dilution.
(§6) Two 96-well plates are needed to conduct a combination test. Using a multichannel pipette, 50 μl of the lowest concentration of the first drug (Drug A) was added to each well of column 1 of the first plate (plate A) and column 1 of the second plate (plate B; rows A-D). Then, 50 μl of the next highest working dilution of Drug A was added to each well in column 2, continuing with dilutions until all columns 1-11 were filled. Column 12 was left empty. 50 μl of the lowest concentration of Drug B was added to each well in Row D of plate B. 50 μl of the next highest working dilution of Drug B was added to each well in row C of plate B, continuing with dilutions until all rows through row B of plate A were filled.
(§7) Following the above, 100 μl of organism inoculum was added to every well. The plates were then incubated for 48 hours and visually read after incubation.
(§8) The objective of the study was to determine whether the combination of SCY-078 with voriconazole, isavuconazole, or amphotericin B would result in a combined in vitro antifungal activity exceeding the sum of the activities of each drug alone. Combination MIC testing was performed using the checkerboard assay described above.
(§9) Initial MIC determinations of the individual antifungals were performed according to the Clinical and Laboratory Standards Institute (CLSI) M38-A2 standard for the susceptibility testing of filamentous fungi.
(§10) Combination MIC testing was performed using a checkerboard test method according to the Center for Medical Mycology SOP A11.3. The checkerboard combination test method is a modification of the microdilution antifungal susceptibility test wherein two test compounds are combined in varying concentrations to determine whether they have synergistic, antagonistic, or no effect on the respective MIC values.
(§11) Antifungals were serially diluted two-fold in RPMI medium to produce eleven concentrations each and were combined in wells of a microtiter plate. Two rows consisting of serial dilutions of each individual drug were included. All combination testing was conducted in duplicate. […]

The subject of another series is A. fumigatus MRL #28378. Briefly: Checkerboard combination MIC testing. The format is cell-based, Aspergillus fumigatus. The settings on record: A. fumigatus MRL 28378 (wild-type), read at 48 hours, duplicate; for MIC per drug in Combination: SCY-078 combined with isavuconazole; for MIC: Aspergillus fumigatus, SCY078, 48 h.
From the text: as §1, §2, §3, §4, §5, §6, §7, §8, §9, §10, §11

The test system of another series is A. fumigatus MRL #28382. As to the kind of experiment: Checkerboard combination MIC testing. The format is cell-based, Aspergillus fumigatus. The settings on record: A. fumigatus MRL 28382 (wild-type), read at 48 hours, duplicate; for MIC: Aspergillus fumigatus, SCY078, 48 h.
From the text: as §1, §2, §3, §4, §5, §6, §7, §8, §9, §10, §11

The next series deals with A. fumigatus MRL #28383. As to the kind of experiment: Checkerboard combination MIC testing. The format is cell-based, Aspergillus fumigatus. The settings on record: A. fumigatus MRL 28383 (azole-resistant), read at 48 hours, duplicate; for MIC: Aspergillus fumigatus, SCY078, 48 h, drug alone.
From the text: as §1, §2, §3, §4, §5, §6, §7, §8, §9, §10, §11

The next series relates to A. fumigatus MRL #28401. As to the kind of experiment: Checkerboard combination MIC testing. The settings on record: A. fumigatus MRL 28401 (wild-type), read at 48 hours, duplicate; for MIC per drug in Combination: SCY-078 combined with isavuconazole; for MIC: Aspergillus fumigatus, SCY078, 48 h. The series is classed as cell-based, Aspergillus fumigatus.
From the text: as §1, §2, §3, §4, §5, §6, §7, §8, §9, §10, §11

Another series is described as follows: Solubility in water. The series is classed as physicochemical.
From the text: as §4

Setting [1] is: SCY-078 combined with amphotericin B.
The mark [2] stands for this setting: SCY-078 combined with voriconazole.
The mark [3] stands for this setting: drug alone, SCY-078/voriconazole test.
The mark [4] stands for this setting: drug alone, SCY-078/amphotericin B test, read-out: MIC Alone.
Setting [5] is: drug alone, SCY-078/isavuconazole test, read-out: MIC per drug Alone.
[6] abbreviates: drug alone, SCY-078/voriconazole test, read-out: MIC Alone.
[7] abbreviates: drug alone, SCY-078/amphotericin B test.
Where [8] appears, read: drug alone, SCY-078/isavuconazole test.
[9] abbreviates: SCY-078/isavuconazole test, read-out: MIC per drug Alone.
The mark [10] stands for this setting: SCY-078 combined with isavuconazole.

Turning to `CC(C)[C@@H](C)[C@@]1(C)CC[C@]2(C)[C@H]3CC[C@@H]4[C@@]5(COC[C@@]4(C)[C@@H](OC[C@](C)(N)C(C)(C)C)[C@H](n4ncnc4-c4ccncc4)C5)C3=CC[C@@]2(C)[C@@H]1C(=O)O` [SCY-078, (1S,4aR,6aS,7R,8R,10aR,10bR,12aR,14R,15R)-15-[[(2R)-2-amino-2,3,3-trimethylbutyl]oxy]-8-[(1R)-1,2-dimethylpropyl]-14-[5-(4-pyridinyl)-1H-1,2,4-triazol-1-yl]-1,6,6a,7,8,9,10,10a,10b,11,12,12a-dodecahydro-1,6a,8,10a-tetramethyl-4H-1,4a-propano-2H-phenanthro[1,2-c]pyran-7-carboxylic acid], the “MIC in Combination” value was 0.016 µg/mL with A. fumigatus MRL #20438 (setting [1]); 0.125 µg/mL and 0.25 µg/mL with A. fumigatus MRL #20438 (setting [2]); 0.016 µg/mL in the series with A. fumigatus MRL #28378 (setting [1]); 0.5 µg/mL with A. fumigatus MRL #28378 (setting [2]); 0.016 µg/mL with A. fumigatus MRL #28383 (setting [1]); 0.031 µg/mL in the series on A. fumigatus MRL #28383 (setting [2]). Besides, the “MIC in Combination” value in the series on A. fumigatus MRL #28401 (setting [1]) was 0.016 µg/mL and 0.031 µg/mL; with A. fumigatus MRL #28401 (setting [2]) it was 0.25 µg/mL and 0.125 µg/mL. Also, the “MIC per drug in Combination” value in the series on A. fumigatus MRL #20438 was 0.016 µg/mL; in the series with A. fumigatus MRL #28378, 0.125 µg/mL; in the series on A. fumigatus MRL #28401 it was 0.25 µg/mL and 0.5 µg/mL. The “MIC Alone” value with A. fumigatus MRL #20438 (setting [3]) stood at 4 µg/mL; in the series with A. fumigatus MRL #28378 (setting [3]) it was 4 µg/mL; in the series with A. fumigatus MRL #28382 (setting [7]), 8 µg/mL; in the series with A. fumigatus MRL #28401 (setting [7]), 8 µg/mL. Moreover, the MIC (as a rule, the least concentration at which growth counts as inhibited) with A. fumigatus MRL #20438 (setting [4]) was found to be 4 µg/mL; in the series with A. fumigatus MRL #20438 (setting [5]), 4 µg/mL; in the series with A. fumigatus MRL #20438 (setting [6]) it was 8 µg/mL; in the series on A. fumigatus MRL #28378 (setting [4]), 4 µg/mL; in the series on A. fumigatus MRL #28378 (setting [5]) it was 4 µg/mL; in the series with A. fumigatus MRL #28378 (setting [6]), 8 µg/mL. Moreover, the MIC worked out at 4 µg/mL in the series on A. fumigatus MRL #28382 (setting [4]); 8 µg/mL in the series with A. fumigatus MRL #28382 (setting [5]); 8 µg/mL in the series on A. fumigatus MRL #28382 (setting [6]); 4 µg/mL in the series on A. fumigatus MRL #28383 (SCY-078/amphotericin B test, read-out: MIC Alone); 4 µg/mL in the series with A. fumigatus MRL #28383 (setting [9]); 8 µg/mL in the series on A. fumigatus MRL #28383 (SCY-078/voriconazole test, read-out: MIC Alone). Besides, the MIC in the series on A. fumigatus MRL #28401 (setting [4]) came to 4 µg/mL; with A. fumigatus MRL #28401 (setting [5]), 4 µg/mL; with A. fumigatus MRL #28401 (setting [6]), 8 µg/mL. The entries for the “MIC per drug Alone” value with A. fumigatus MRL #28382 (setting [8]) and in the series with A. fumigatus MRL #28401 (setting [8]) were 4 µg/mL and 8 µg/mL, respectively. Moreover, the Solubility in water result in the series “Solubility in water” is “not soluble in water”.

For `C[C@@H](c1nc(-c2ccc(C#N)cc2)cs1)[C@](O)(Cn1cncn1)c1cc(F)ccc1F` [Isavuconazole, isavuconazole], the “MIC per drug in Combination” value was 0.5 µg/mL in the series on A. fumigatus MRL #20438; 0.125 µg/mL and 0.25 µg/mL with A. fumigatus MRL #28378; 0.25 µg/mL in the series with A. fumigatus MRL #28382 (setting [10]); >8 µg/mL and 4 µg/mL with A. fumigatus MRL #28383 (setting [10]); 0.25 µg/mL with A. fumigatus MRL #28401. In addition, the MIC is 1 µg/mL with A. fumigatus MRL #20438 (setting [5]), 1 µg/mL in the series on A. fumigatus MRL #28378 (setting [5]), above 8 µg/mL in the series with A. fumigatus MRL #28383 (setting [9]) and 1 µg/mL with A. fumigatus MRL #28401 (setting [5]).
